Converted amounts (≈) assume the structure as drawn. Blank lines part the entries; values can stand above or below the molecule they belong to.
What was measured:
[1] = in vitro; type: cell-based; conditions: human, mcr-5 fibroblasts
[2] = system: Rhinovirus type 1 A (R 2060 strain); assay: Inhibition of cytopathogenic effect of rhinovirus type 1 A in human fibroblast cultures; type: cell-based, human rhinovirus type 1 A; conditions: Enterovirus, 37° C., 3-4 days; for MIC: human fibroblasts, prevention of cytopathogenic effect, read-out: Minimum inhibitory concentration, Rhinovirus type 1 A; for inhibition at 15 µg/mL: Fibroblast, at 15 μg/cm^3, human fibroblasts, read-out: Inhibition of cytopathogenic effect, Rhinovirus type 1 A (printed in minimum inhibitory concentration column)
Protocol: (§1) The type 1 A (R 2060 strain) and type 1 B (R 1112 strain) human rhinoviruses have the property of forming foci of necrosis (cytopathogeniceffect) on single-layer cell cultures. The compounds of the formula (I), which prevent the formation of these foci, have been selected as active substances.
(§2) Decreasing concentrations of the same solution or suspension of the compound under test are added to fresh identical cell cultures, the highest concentration being the maximum non-cytotoxic concentration. About one hour after the compounds have been added, the cultures are inoculated with 0.2 cm^3 of a suitably diluted suspension of virus (in isotonic phosphate buffer), which is capable of destroying about 75% of cells (cytopathogenic effect). 5 Control cultures (without test compound) are also inoculated. All the cultures are then incubated at 37° C. in a "roller" tissue culture apparatus at the same time as 2 control cultures (without test compound or virus) which have received 0.2 cm^3 of isotonic phosphate buffer. 3-4 Days after the start of the experiment, the cytopathogenic effect of the virus is examined under a microscope. The active compounds are those which have prevented the appearance of the cytopathogenic effect, and those which have inhibited it by at least 50% are considered to be partially active.

[3] = system: Rhinovirus type 1 B (R 1112 strain); assay: Inhibition of cytopathogenic effect of rhinovirus type 1 B in human fibroblast cultures; type: cell-based, human rhinovirus type 1 B; conditions: Enterovirus, human fibroblasts, 37° C., 3-4 days, prevention of cytopathogenic effect, read-out: Minimum inhibitory concentration, Rhinovirus type 1 B
Protocol: as §1, §2

MNTC [1]: 15 µg/mL
Compound: Clc1ncccc1N=C1SC[C@@H]2Cc3ccccc3CN12 [Compound 2, (S)-3-[(2-chloropyrid-3-yl)-imino]-1,5,10,10a-tetrahydrothiazolo[3,4-b]isoquinoline]
inhibition at 15 µg/mL [2]: ≥ 50%
MIC [3]: 0.016 µg/mL (≈ 0.0507 µM)

MNTC [1]: 15 µg/mL
Compound: Fc1ncccc1N=C1SC[C@@H]2Cc3ccccc3CN12 [Compound 3, (S)-3-[(2-fluoropyrid-3-yl)-imino]-1,5,10,10a-tetrahydrothiazolo[3,4-b]-isoquinoline]
MIC [2]: 15 µg/mL (≈ 50.1 µM)
MIC [3]: 0.016 µg/mL (≈ 0.0534 µM)

Further lines, the molecule ahead of its results:

Compound: c1cncc(N=C2SC[C@@H]3Cc4ccccc4CN23)c1 [Compound 1]
MNTC [1]: > 30 µg/mL
MIC [2]: 15 µg/mL (≈ 53.3 µM)
MIC [3]: 0.15 µg/mL (≈ 0.533 µM)

Compound: COc1ncccc1N=C1SC[C@@H]2Cc3ccccc3CN12 [Compound 4, (S)-3-[(2-methoxypyrid-3-yl)-imino]-1,5,10,10a-tetrahydrothiazolo[3,4-b]isoquinoline]
MNTC [1]: 15 µg/mL
inhibition at 15 µg/mL [2]: ≥ 50%
MIC [3]: 1.5 µg/mL (≈ 4.82 µM)

Compound: c1ccc2c(c1)C[C@H]1CSC(=Nc3cccc4cnccc34)N1C2 [Compound 5]
MNTC [1]: > 60 µg/mL
MIC [2]: 0.7 µg/mL (≈ 2.11 µM)
MIC [3]: 0.7 µg/mL (≈ 2.11 µM)

Compound: Cc1cc2c(N=C3SC[C@@H]4Cc5ccccc5CN34)cccc2cn1 [Compound 6, (S)-3-(3-methylisoquinol-5-yl)-imino-1,5,10,10a-tetrahydrothiazolo[3,4-b]isoquinoline]
MNTC [1]: 30 µg/mL
MIC [2]: 1.5 µg/mL (≈ 4.34 µM)
MIC [3]: 1.5 µg/mL (≈ 4.34 µM)

— US4269842A, “Method for treating rhinoviral complaints” (Rhone-Poulenc Industries, priority 1979, dated 1981)
